Results from PubChem BioAssay (NCI).
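Grown in 96-well plates, cells were treated for 48 hours with each compound at five concentrations. Insufficient inhibition: endpoint recorded as highest concentration tested. GI50 marks 50% less growth. TGI: total growth inhibition.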

Assays:
Assay in all cases: DTP human tumour cell line panel, 48 h
OVCAR-5 ovarian = test system: OVCAR-5 ovarian
EKVX NSCLC = test system: EKVX NSCLC
M14 melanoma = test system: M14 melanoma
RXF 393 renal = test system: RXF 393 renal
HOP-92 NSCLC = test system: HOP-92 NSCLC
SK-MEL-28 melanoma = test system: SK-MEL-28 melanoma
SNB-19 CNS = test system: SNB-19 CNS
OVCAR-3 ovarian = test system: OVCAR-3 ovarian
K-562 leukemia = test system: K-562 leukemia
SF-268 CNS = test system: SF-268 CNS
SW-620 colon = test system: SW-620 colon
MALME-3M melanoma = test system: MALME-3M melanoma
SF-539 CNS = test system: SF-539 CNS
NCI-H23 lung = test system: NCI-H23 lung
OVCAR-4 ovarian = test system: OVCAR-4 ovarian
HOP-62 NSCLC = test system: HOP-62 NSCLC
RPMI-8226 leukemia = test system: RPMI-8226 leukemia
A549 NSCLC = test system: A549 NSCLC
CCRF-CEM leukemia = test system: CCRF-CEM leukemia
NCI-H522 lung = test system: NCI-H522 lung
UACC-62 melanoma = test system: UACC-62 melanoma
IGROV1 ovarian = test system: IGROV1 ovarian
PC-3 prostate = test system: PC-3 prostate
786-0 renal = test system: 786-0 renal
HCT-15 colon = test system: HCT-15 colon
CAKI-1 renal = test system: CAKI-1 renal
MDA-MB-435 = test system: MDA-MB-435
HS 578T breast = test system: HS 578T breast
NCI/ADR-RES ovarian = test system: NCI/ADR-RES ovarian
SN12C renal = test system: SN12C renal
HCT-116 colon = test system: HCT-116 colon
KM12 colon = test system: KM12 colon
SK-OV-3 ovarian = test system: SK-OV-3 ovarian
MOLT-4 leukemia = test system: MOLT-4 leukemia
BT-549 breast = test system: BT-549 breast
TK-10 renal = test system: TK-10 renal
ACHN renal = test system: ACHN renal
UO-31 renal = test system: UO-31 renal
T-47D breast = test system: T-47D breast
COLO 205 colon = test system: COLO 205 colon
OVCAR-8 ovarian = test system: OVCAR-8 ovarian
HL-60(TB) leukemia = test system: HL-60(TB) leukemia
A498 renal = test system: A498 renal
HT29 colon = test system: HT29 colon
NCI-H460 lung = test system: NCI-H460 lung
HCC-2998 colon = test system: HCC-2998 colon
SF-295 CNS = test system: SF-295 CNS
DU-145 prostate = test system: DU-145 prostate
MCF7 breast = test system: MCF7 breast

Compound: COc1ccc(-c2ccc(/C=N/n3c(C)n[nH]c3=S)o2)c([N+](=O)[O-])c1
- GI50 (OVCAR-5 ovarian): > 100 µM
- TGI (OVCAR-5 ovarian): > 100 µM
- GI50 (EKVX NSCLC): > 100 µM
- TGI (EKVX NSCLC): > 100 µM
- GI50 (M14 melanoma): > 100 µM
- TGI (M14 melanoma): > 100 µM
- GI50 (RXF 393 renal): 32.8 µM
- TGI (RXF 393 renal): > 100 µM
- GI50 (HOP-92 NSCLC): 12.4 µM
- TGI (HOP-92 NSCLC): 45.4 µM
- GI50 (SK-MEL-28 melanoma): > 100 µM
- TGI (SK-MEL-28 melanoma): > 100 µM
- GI50 (SNB-19 CNS): > 100 µM
- TGI (SNB-19 CNS): > 100 µM
- GI50 (OVCAR-3 ovarian): > 100 µM
- TGI (OVCAR-3 ovarian): > 100 µM
- GI50 (K-562 leukemia): > 100 µM
- TGI (K-562 leukemia): > 100 µM
- GI50 (SF-268 CNS): 47.5 µM
- TGI (SF-268 CNS): > 100 µM
- GI50 (SW-620 colon): > 100 µM
- TGI (SW-620 colon): > 100 µM
- GI50 (MALME-3M melanoma): 54.1 µM
- TGI (MALME-3M melanoma): > 100 µM
- GI50 (SF-539 CNS): 39.4 µM
- TGI (SF-539 CNS): > 100 µM
- GI50 (NCI-H23 lung): > 100 µM
- TGI (NCI-H23 lung): > 100 µM
- GI50 (OVCAR-4 ovarian): > 100 µM
- TGI (OVCAR-4 ovarian): > 100 µM
- GI50 (HOP-62 NSCLC): 46 µM
- TGI (HOP-62 NSCLC): > 100 µM
- GI50 (RPMI-8226 leukemia): > 100 µM
- TGI (RPMI-8226 leukemia): > 100 µM
- GI50 (A549 NSCLC): > 100 µM
- TGI (A549 NSCLC): > 100 µM
- GI50 (CCRF-CEM leukemia): > 100 µM
- TGI (CCRF-CEM leukemia): > 100 µM
- GI50 (NCI-H522 lung): > 100 µM
- TGI (NCI-H522 lung): > 100 µM
- GI50 (UACC-62 melanoma): > 100 µM
- TGI (UACC-62 melanoma): > 100 µM
- GI50 (IGROV1 ovarian): > 100 µM
- TGI (IGROV1 ovarian): > 100 µM
- GI50 (PC-3 prostate): > 100 µM
- TGI (PC-3 prostate): > 100 µM
- GI50 (786-0 renal): 91.1 µM
- TGI (786-0 renal): > 100 µM
- GI50 (HCT-15 colon): > 100 µM
- TGI (HCT-15 colon): > 100 µM
- GI50 (CAKI-1 renal): > 100 µM
- TGI (CAKI-1 renal): > 100 µM
- GI50 (MDA-MB-435): > 100 µM
- TGI (MDA-MB-435): > 100 µM
- GI50 (HS 578T breast): > 100 µM
- TGI (HS 578T breast): > 100 µM
- GI50 (NCI/ADR-RES ovarian): > 100 µM
- TGI (NCI/ADR-RES ovarian): > 100 µM
- GI50 (SN12C renal): > 100 µM
- TGI (SN12C renal): > 100 µM
- GI50 (HCT-116 colon): > 100 µM
- TGI (HCT-116 colon): > 100 µM
- GI50 (KM12 colon): > 100 µM
- TGI (KM12 colon): > 100 µM
- GI50 (SK-OV-3 ovarian): > 100 µM
- TGI (SK-OV-3 ovarian): > 100 µM
- GI50 (MOLT-4 leukemia): > 100 µM
- TGI (MOLT-4 leukemia): > 100 µM
- GI50 (BT-549 breast): > 100 µM
- TGI (BT-549 breast): > 100 µM
- GI50 (TK-10 renal): 69.1 µM
- TGI (TK-10 renal): > 100 µM
- GI50 (ACHN renal): 93 µM
- TGI (ACHN renal): > 100 µM
- GI50 (UO-31 renal): > 100 µM
- TGI (UO-31 renal): > 100 µM
- GI50 (T-47D breast): > 100 µM
- TGI (T-47D breast): > 100 µM
- GI50 (COLO 205 colon): > 100 µM
- TGI (COLO 205 colon): > 100 µM
- GI50 (OVCAR-8 ovarian): 84 µM
- TGI (OVCAR-8 ovarian): > 100 µM
- GI50 (HL-60(TB) leukemia): > 100 µM
- TGI (HL-60(TB) leukemia): > 100 µM
- GI50 (A498 renal): > 100 µM
- TGI (A498 renal): > 100 µM
- GI50 (HT29 colon): > 100 µM
- TGI (HT29 colon): > 100 µM
- GI50 (NCI-H460 lung): > 100 µM
- TGI (NCI-H460 lung): > 100 µM
- GI50 (HCC-2998 colon): > 100 µM
- TGI (HCC-2998 colon): > 100 µM
- GI50 (SF-295 CNS): 36.3 µM
- TGI (SF-295 CNS): > 100 µM
- GI50 (DU-145 prostate): > 100 µM
- TGI (DU-145 prostate): > 100 µM
- GI50 (MCF7 breast): > 100 µM
- TGI (MCF7 breast): > 100 µM
